Measurements as given in ChEMBL document CHEMBL5143529, “Design, synthesis, and biological evaluation of novel (4-(1,2,4-oxadiazol-5-yl)phenyl)-2-aminoacetamide derivatives as multifunctional agents for the treatment of Alzheimer's disease” (Eur J Med Chem, 2022).
pIC50: −log10 of the molar value.

Experiments:
[1] = biological target: Acetylcholinesterase (Electrophorus electricus, UniProt O42275); assay: Inhibition of electric eel AChE using acetylthiocholine iodide as substrate preincubated for 20 mins followed by substrate addition and measured after 5 mins by DTNB-reagent based Ellman's method
[2] = test system: PC-12; assay: Neuroprotective activity against H202-induced cell death in rat PC-12 cells assessed as cell viability at 5 uM pretreated for 3 hrs followed by H2O2 stimulation and measured after 24 hrs by MTT assay relative to control; type: functional; settings: time 27 hrs, read-out: Activity
[3] = test system: PC-12; assay: Neuroprotective activity against H202-induced cell death in rat PC-12 cells assessed as cell viability at 20 uM pretreated for 3 hrs followed by H2O2 stimulation and measured after 24 hrs by MTT assay relative to control; type: functional; settings: time 27 hrs, read-out: Activity
[4] = Cytotoxicity against rat PC-12 cells assessed as cell viability at 25 uM incubated for 24 hrs by MTT assay relative to control; type: toxicity, cell-based; settings: read-out: Activity
[5] = Cytotoxicity against rat PC-12 cells assessed as cell viability at 50 uM incubated for 24 hrs by MTT assay relative to control; type: toxicity, cell-based; settings: read-out: Activity
[6] = biological target: Cholinesterase (Equus caballus, UniProt P81908)
Description: Inhibition of equine serum BuChE using butyrylthiocholine iodide as substrate preincubated for 20 mins followed by substrate addition and measured after 5 mins by DTNB-reagent based Ellman's method

[7] = cells; settings: Mus musculus, BV-2
Description: Inhibition of NO production in LPS-induced mouse BV-2 cells pretreated for 1 hr followed by LPS stimulation and measured after 24 hrs by ELISA

[8] = Potency index, ratio of resveratrol IC50 to test compound IC50 for inhibition of NO production in LPS-induced mouse BV-2 cells pretreated for 1 hr followed by LPS stimulation and measured after 24 hrs by ELISA; type: functional; settings: time 25 hrs

Acetylcholinesterase, sequence (O42275 whole entry): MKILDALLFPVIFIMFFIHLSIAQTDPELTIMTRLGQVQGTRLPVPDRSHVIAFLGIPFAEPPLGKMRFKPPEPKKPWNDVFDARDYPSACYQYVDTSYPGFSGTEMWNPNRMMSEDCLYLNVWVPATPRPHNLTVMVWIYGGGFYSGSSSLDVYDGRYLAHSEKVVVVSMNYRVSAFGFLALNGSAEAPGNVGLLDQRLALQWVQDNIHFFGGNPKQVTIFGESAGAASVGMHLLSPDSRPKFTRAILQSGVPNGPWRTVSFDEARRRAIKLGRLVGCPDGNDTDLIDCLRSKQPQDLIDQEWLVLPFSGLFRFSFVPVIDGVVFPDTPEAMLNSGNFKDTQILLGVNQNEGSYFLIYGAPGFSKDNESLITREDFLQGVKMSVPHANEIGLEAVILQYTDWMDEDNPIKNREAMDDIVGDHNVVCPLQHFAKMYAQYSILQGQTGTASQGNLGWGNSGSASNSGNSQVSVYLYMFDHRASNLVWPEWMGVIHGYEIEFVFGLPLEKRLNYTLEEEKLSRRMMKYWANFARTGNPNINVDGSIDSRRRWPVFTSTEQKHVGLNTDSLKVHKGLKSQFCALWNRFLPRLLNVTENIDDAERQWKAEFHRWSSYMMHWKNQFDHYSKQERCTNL
Cholinesterase, sequence (P81908 whole entry): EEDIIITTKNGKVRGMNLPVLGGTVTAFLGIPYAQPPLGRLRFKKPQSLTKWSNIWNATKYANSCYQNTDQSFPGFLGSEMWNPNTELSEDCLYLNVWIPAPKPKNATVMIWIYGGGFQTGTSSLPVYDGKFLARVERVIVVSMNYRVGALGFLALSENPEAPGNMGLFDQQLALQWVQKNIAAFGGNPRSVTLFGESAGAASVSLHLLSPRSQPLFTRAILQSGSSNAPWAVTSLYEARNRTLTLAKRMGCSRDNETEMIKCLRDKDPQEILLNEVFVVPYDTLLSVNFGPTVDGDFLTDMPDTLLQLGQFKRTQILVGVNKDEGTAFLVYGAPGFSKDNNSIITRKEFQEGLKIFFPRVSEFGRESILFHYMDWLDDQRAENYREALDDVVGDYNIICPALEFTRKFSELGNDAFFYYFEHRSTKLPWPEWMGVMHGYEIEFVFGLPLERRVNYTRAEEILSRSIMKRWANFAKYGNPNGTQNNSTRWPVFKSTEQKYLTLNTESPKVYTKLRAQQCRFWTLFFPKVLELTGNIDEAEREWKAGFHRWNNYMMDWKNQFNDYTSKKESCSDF

Compound	pIC50 [1]	viability at 5 µM [2]	viability at 20 µM [3]	viability at 24 h, 25 µM [4]	viability at 24 h, 50 µM [5]	pIC50 [6]	pIC50 [7]	Ratio IC50 [8]
O=C(CNc1ccc(Cl)cc1)Nc1ccc(-c2nc(-c3ccnc(Nc4ccc(OC(F)(F)F)cc4)c3)no2)cc1	4.34	43.6%	61.6%	98.8%	98.2%	5.13	5.59	
Oc1ccc(/C=C/c2cc(O)cc(O)c2)cc1 [RESVERATROL]							4.96	
O=c1c(O)c(-c2ccc(O)c(O)c2)oc2cc(O)cc(O)c12 [QUERCETIN]		48.2%	59.4%	99.6%	99.5%			
O=C(CNc1ccc(Br)cc1)Nc1ccc(-c2nc(-c3ccnc(Nc4ccc(OC(F)(F)F)cc4)c3)no2)cc1	< 4.30	37.8%	46.5%	99.7%	99.1%	4.98	5.37	
Cc1cccc(NCC(=O)Nc2ccc(-c3nc(-c4ccnc(Nc5ccc(OC(F)(F)F)cc5)c4)no3)cc2)c1	< 4.30	50.1%	50.7%	99.6%	99.2%	4.69	5.14	
O=C(CNc1ccc(F)c(F)c1)Nc1ccc(-c2nc(-c3ccnc(Nc4ccc(OC(F)(F)F)cc4)c3)no2)cc1	< 4.30	35.7%	45.8%	99.4%	97.3%	5.01	5.32	
CC(C)CNCC(=O)Nc1ccc(-c2nc(-c3ccnc(Nc4ccc(OC(F)(F)F)cc4)c3)no2)cc1	< 4.30	34.1%	43.9%	99.9%	99.6%	4.53	5.41	
O=C(CNc1cccc(F)c1)Nc1ccc(-c2nc(-c3ccnc(Nc4ccc(OC(F)(F)F)cc4)c3)no2)cc1	< 4.30	39.4%	58.5%	99.6%	99.3%	5.26	5.50	
COc1ccc(NCC(=O)Nc2ccc(-c3nc(-c4ccnc(Nc5ccc(OC(F)(F)F)cc5)c4)no3)cc2)cc1	< 4.30	33.2%	44.6%	99%	98.7%	< 4.30	5.16	
O=C(CNCc1cccc(Cl)c1)Nc1ccc(-c2nc(-c3ccnc(Nc4ccc(OC(F)(F)F)cc4)c3)no2)cc1	< 4.30	33.4%	43.9%	99.8%	99.7%	< 4.30	4.84	
O=C(CNc1cccc(Cl)c1)Nc1ccc(-c2nc(-c3ccnc(Nc4ccc(OC(F)(F)F)cc4)c3)no2)cc1	< 4.30	34.1%	37.7%	99.4%	98.7%	4.89	5.44	
O=C(CNCc1ccccc1)Nc1ccc(-c2nc(-c3ccnc(Nc4ccc(OC(F)(F)F)cc4)c3)no2)cc1	< 4.30	43.2%	53.5%	99.7%	99.5%	4.41	5.13	
O=C(CNCc1ccc(C(F)(F)F)cc1)Nc1ccc(-c2nc(-c3ccnc(Nc4ccc(OC(F)(F)F)cc4)c3)no2)cc1	< 4.30	25.7%	33%	99.7%	99.4%	4.51	5.07	
O=C(CNc1ccc(C(F)(F)F)cc1)Nc1ccc(-c2nc(-c3ccnc(Nc4ccc(OC(F)(F)F)cc4)c3)no2)cc1	4.33	55.8%	61.7%	99.9%	99.7%	5.73	5.79	
O=C(CNC1CCCC1)Nc1ccc(-c2nc(-c3ccnc(Nc4ccc(OC(F)(F)F)cc4)c3)no2)cc1	< 4.30	44.1%	57%	99.5%	98.2%	4.78	5.58	
O=C(CNC1CC1)Nc1ccc(-c2nc(-c3ccnc(Nc4ccc(OC(F)(F)F)cc4)c3)no2)cc1	4.31	33.5%	46.7%	100%	99.7%	4.61	5.25	
Cc1ccccc1NCC(=O)Nc1ccc(-c2nc(-c3ccnc(Nc4ccc(OC(F)(F)F)cc4)c3)no2)cc1	< 4.30	45.2%	55.2%	99.6%	99.3%	4.59	5.06	
CCCNCC(=O)Nc1ccc(-c2nc(-c3ccnc(Nc4ccc(OC(F)(F)F)cc4)c3)no2)cc1	< 4.30	41.4%	52.8%	99.6%	99.5%	4.63	5.11	
O=C(CNCc1cccc(F)c1)Nc1ccc(-c2nc(-c3ccnc(Nc4ccc(OC(F)(F)F)cc4)c3)no2)cc1	< 4.30	28.1%	36.2%	98.4%	96.7%	4.34	4.89	
Cc1ccc(NCC(=O)Nc2ccc(-c3nc(-c4ccnc(Nc5ccc(OC(F)(F)F)cc5)c4)no3)cc2)cc1	< 4.30	37.9%	49.1%	100%	99.8%	4.72	5.22	
CCCCNCC(=O)Nc1ccc(-c2nc(-c3ccnc(Nc4ccc(OC(F)(F)F)cc4)c3)no2)cc1	< 4.30	40%	44.4%	99.9%	98.9%	4.80	5.08	
COc1cccc(NCC(=O)Nc2ccc(-c3nc(-c4ccnc(Nc5ccc(OC(F)(F)F)cc5)c4)no3)cc2)c1	< 4.30	30.7%	33.7%	99.5%	98.3%	4.47	4.88	
O=C(CNCc1ccc(F)cc1)Nc1ccc(-c2nc(-c3ccnc(Nc4ccc(OC(F)(F)F)cc4)c3)no2)cc1	< 4.30	41.9%	48.6%	100%	99.8%	4.42	5.03	
O=C(CNc1ccccc1)Nc1ccc(-c2nc(-c3ccnc(Nc4ccc(OC(F)(F)F)cc4)c3)no2)cc1	< 4.30	46.9%	58.4%	99.8%	99.4%	4.85	6.38	26
